In PubChem BioAssay (NCI):
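These data come from cells grown in 96-well plates and exposed to compound for 48 hours at five concentrations. TGI: total growth inhibition.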

Each compound was assayed on CAKI-1 renal (assay: inhibition of tumour cell growth, NCI panel, 48 h).

| Compound | TGI |
| --- | --- |
| Cc1nnc([C@@]2(C)CC[C@H]3[C@@H](CC=C4C[C@@H](O)CC[C@@]43C)[C@@H]2CC#N)o1 | > 100 µM |
| COc1ccc(-c2c(C(C)=O)c(-c3ccccc3)n(C3OC(COC(C)=O)C(OC(C)=O)C(OC(C)=O)C3OC(C)=O)c(=S)c2C#N)cc1 (configuration not stated) | > 100 µM |
| O=C1SCC(O)=C1/C=N/Nc1nc2ccccc2o1 | > 100 µM |
| CCCCCCCCCCCCCCCCCc1cccc(OCOCCOC)c1CO | > 100 µM |
| O=C1CCC(c2ccccc2)C(O)(C(=O)O)C1 (configuration not stated) | > 100 µM |
| N#CCCN(CCC#N)c1ccc(C(=O)NN)cc1 | > 100 µM |
| CN1CCC(OC(=O)Oc2ccccc2)(c2ccccc2)CC1 | > 100 µM |
| CCN(CC)Cc1cc(Nc2ccnc3ccc4c(nnn4C)c23)ccc1O | 33.3 µM |
| CC1=CC(=O)NP(=O)(Oc2ccc(C)cc2)N1 (configuration not stated) | > 100 µM |
| CCOC(=O)CC(NC(=O)c1nc[nH]c1[N+](=O)[O-])C(=O)OCC (configuration not stated) | > 100 µM |
| COC(=O)c1ccc2c(c1)CC1(C2)Cc2cc3c(cc2C1=O)CCC3 (configuration not stated) | 96.5 µM |
| S=C1Cc2c([nH]c3ccccc23)-c2ccccc2N1 | 79 µM |
| N#[O+].O=S(=O)([O-])[O-].[NH2-].[NH2-].[NH2-].[NH2-].[NH2-].[Ru+5] | > 100 µM |

The compounds below were run on NCI-H460 lung (assay: inhibition of tumour cell growth, NCI panel, 48 h).

| Compound | TGI |
| --- | --- |
| O=C1c2ccccc2S[C@@H](O)[C@@H]2CCCN12 | > 100 µM |
| Cc1cc(=O)[nH]c(NNC(C#N)c2ccc(O)cc2)n1 (configuration not stated) | > 100 µM |
| O=C1NNC(=O)C2C3c4ccccc4C(c4ccccc43)C12 (configuration not stated) | > 100 µM |
| O=C(CSc1nnc(Cc2ccccc2)o1)Nc1cccc([N+](=O)[O-])c1 | > 100 µM |
| O=C(CC(=O)n1nc(-c2ccccc2)c(N=Nc2ccc(Cl)cc2)c1-c1ccccc1)Nc1cccc(Cl)c1 | > 100 µM |
| O=P(c1ccccc1)(c1ccccc1)C(NCc1ccccc1)c1ccc(F)cc1 (configuration not stated) | 26.7 µM |
| CCOC(=O)C(Cl)(NC(=O)c1ccc(F)cc1)C(F)(F)F (configuration not stated) | > 100 µM |
| CC1CN=C(Nc2ccc(S(N)(=O)=O)cc2)S1 (configuration not stated) | > 100 µM |
| CC(=O)NCc1nc(C#N)c(N)o1 | > 100 µM |
| COc1cc2c(c(OC)c1OC)-c1ccc(SC)c(=O)cc1C(CC(=O)Oc1ccc([N+](=O)[O-])cc1)C2 (configuration not stated) | 5.78 µM |
| CSc1nc(Cl)c2c(n1)Sc1nc3cc4c(cc3n1C2O)OCO4 (configuration not stated) | > 32 µM |
| CC(=O)NC(CCCN)C(=O)NCc1ccccc1 (configuration not stated) | > 100 µM |
| Cc1[nH]c(=O)[nH]c(=S)c1C(=O)NC(C)(CO)CO | > 100 µM |
| COc1ccc(-c2c(C(C)=O)c(-c3ccccc3)n(C3OC(COC(C)=O)C(OC(C)=O)C(OC(C)=O)C3OC(C)=O)c(=S)c2C#N)cc1 (configuration not stated) | > 100 µM |
| O=C1SCC(O)=C1/C=N/Nc1nc2ccccc2o1 | > 100 µM |
| CCCCCCCCCCCCCCCCCc1cccc(OCOCCOC)c1CO | > 100 µM |
| CCOC(=O)Cn1sc2ncc([N+](=O)[O-])cc2c1=O | 34.4 µM |
| O=C1CCC(c2ccccc2)C(O)(C(=O)O)C1 (configuration not stated) | > 100 µM |
| N#CCCN(CCC#N)c1ccc(C(=O)NN)cc1 | > 100 µM |
| CN1CCC(OC(=O)Oc2ccccc2)(c2ccccc2)CC1 | 39.3 µM |
| CCN(CC)Cc1cc(Nc2ccnc3ccc4c(nnn4C)c23)ccc1O | 14.2 µM |
| CC1=CC(=O)NP(=O)(Oc2ccc(C)cc2)N1 (configuration not stated) | > 100 µM |
| CC(=O)OC1CC2OC(Cc3ccccc32)O1 (configuration not stated) | > 100 µM |
| CCOC(=O)CC(NC(=O)c1nc[nH]c1[N+](=O)[O-])C(=O)OCC (configuration not stated) | > 100 µM |
| COC(=O)c1ccc2c(c1)CC1(C2)Cc2cc3c(cc2C1=O)CCC3 (configuration not stated) | > 100 µM |
| S=C1Cc2c([nH]c3ccccc23)-c2ccccc2N1 | > 100 µM |
| N#[O+].O=S(=O)([O-])[O-].[NH2-].[NH2-].[NH2-].[NH2-].[NH2-].[Ru+5] | > 100 µM |

Each compound was assayed on HOP-92 NSCLC (assay: inhibition of tumour cell growth, NCI panel, 48 h).

| Compound | TGI |
| --- | --- |
| O=C1c2ccccc2S[C@@H](O)[C@@H]2CCCN12 | > 100 µM |
| Cc1cc(=O)[nH]c(NNC(C#N)c2ccc(O)cc2)n1 (configuration not stated) | > 100 µM |
| O=C(CC(=O)n1nc(-c2ccccc2)c(N=Nc2ccc(Cl)cc2)c1-c1ccccc1)Nc1cccc(Cl)c1 | > 100 µM |
| COc1cccc(C2c3cc4c(cc3OC(N3CCCC3)C2C)OCO4)c1 (configuration not stated) | 12.6 µM |
| CN(C)/N=C(\CCN1CCCC1)CC(c1ccccc1)c1c(O)c2ccccc2oc1=O (configuration not stated) | > 100 µM |
| O=P(c1ccccc1)(c1ccccc1)C(NCc1ccccc1)c1ccc(F)cc1 (configuration not stated) | 26.6 µM |
| CCOC(=O)C(Cl)(NC(=O)c1ccc(F)cc1)C(F)(F)F (configuration not stated) | > 100 µM |
| CC1CN=C(Nc2ccc(S(N)(=O)=O)cc2)S1 (configuration not stated) | > 100 µM |
| CC(=O)NCc1nc(C#N)c(N)o1 | > 100 µM |
| COc1cc2c(c(OC)c1OC)-c1ccc(SC)c(=O)cc1C(CC(=O)Oc1ccc([N+](=O)[O-])cc1)C2 (configuration not stated) | > 48.3 µM |
| CC(=O)NC(CCCN)C(=O)NCc1ccccc1 (configuration not stated) | > 100 µM |
| Cc1[nH]c(=O)[nH]c(=S)c1C(=O)NC(C)(CO)CO | > 100 µM |
| Cc1nnc([C@@]2(C)CC[C@H]3[C@@H](CC=C4C[C@@H](O)CC[C@@]43C)[C@@H]2CC#N)o1 | > 100 µM |
| COc1ccc(-c2c(C(C)=O)c(-c3ccccc3)n(C3OC(COC(C)=O)C(OC(C)=O)C(OC(C)=O)C3OC(C)=O)c(=S)c2C#N)cc1 (configuration not stated) | 71.7 µM |
| O=C1SCC(O)=C1/C=N/Nc1nc2ccccc2o1 | 81.7 µM |
| CCCCCCCCCCCCCCCCCc1cccc(OCOCCOC)c1CO | > 100 µM |
| CCOC(=O)Cn1sc2ncc([N+](=O)[O-])cc2c1=O | 26.9 µM |
